Test results published in ChEMBL document CHEMBL1132030, “Photoactivatable peptides based on BMS-197525: a potent antagonist of the human thrombin receptor (PAR-1)” (Bioorg Med Chem Lett, 1999).
Where a SMILES comes first, the peptide text is derived from it. [ ]: non-standard residue; d: D form. The star is where a group is joined. Phe(4-guanidino) = N=C(N)Nc1ccc(C[C@H](N)C(=O)O)cc1; Bpa = N[C@@H](Cc1ccc(C(=O)c2ccccc2)cc1)C(=O)O; Phe(4-F) = N[C@@H](Cc1ccc(F)cc1)C(=O)O; NBD = O=[N+]([O-])c1ccc(*)c2nonc12; Orn = NCCC[C@H](N)C(=O)O; X2 = O=C(/C=C/c1ccccc1)*

Target: T1, Proteinase-activated receptor 1 (Homo sapiens, UniProt P25116)
T1 sequence (P25116 whole entry): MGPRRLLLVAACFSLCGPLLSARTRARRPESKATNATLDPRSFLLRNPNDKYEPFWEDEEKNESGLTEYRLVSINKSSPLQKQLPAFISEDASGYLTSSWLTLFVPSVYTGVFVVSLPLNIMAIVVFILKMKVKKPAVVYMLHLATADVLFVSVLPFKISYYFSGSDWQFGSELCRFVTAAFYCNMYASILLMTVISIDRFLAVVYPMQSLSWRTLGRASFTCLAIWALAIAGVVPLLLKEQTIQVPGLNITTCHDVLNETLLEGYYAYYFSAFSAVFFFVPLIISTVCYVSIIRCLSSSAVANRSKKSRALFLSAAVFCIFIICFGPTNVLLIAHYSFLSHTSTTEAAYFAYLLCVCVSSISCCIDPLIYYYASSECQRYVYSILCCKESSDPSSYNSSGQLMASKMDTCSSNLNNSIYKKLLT
Assay: Human Thrombin receptor 1 (PAR-1) antagonistic ability to inhibit SFLLRN-NH2 (2.7 uM)-induced platelet aggregation; Not active at 110 uM concentration; call rule not given here
Assay type: functional

CC(C)C[C@H](NC(=O)[C@H](Cc1ccc(NC(=N)N)cc1)NC(=O)[C@H](Cc1ccc(F)cc1)NC(=O)/C=C/c1ccccc1)C(=O)N[C@@H](Cc1ccc(C(=O)c2ccccc2)cc1)C(=O)N[C@@H](CCCNc1ccc([N+](=O)[O-])c2nonc12)C(=O)O (X2-[Phe(4-F)][Phe(4-guanidino)]L[Bpa][Orn](NBD)-OH)
IC50: Not Active
